{"source": "paper PMC5021161", "about": "(Environmental and Molecular Mutagenesis, 2016)", "key": {"[1]": {"system": "ATF3", "type": "cell-based, human", "details": "4 hr + 3-4 hr recovery"}, "[2]": {"system": "CDKN1A", "type": "cell-based, human", "details": "4 hr + 3-4 hr recovery"}, "[3]": {"system": "GADD45A", "type": "cell-based, human", "details": "4 hr + 3-4 hr recovery"}, "[4]": {"system": "TK6 cells", "details": "for % Relative Survival: 4 hr + 20 hr recovery"}, "[5]": {"system": "TK6 cells", "details": "4 hr + 20 hr recovery"}, "[6]": {"system": "TK6 cells", "details": "for % MN: 4 hr + 20 hr recovery; for statistically significant % MN increase relative to controls: for at least one concentration, definitive study"}, "[7]": {"system": "TGx‐28.65 biomarker genes", "details": "for Dendogram TGx‐28.65 / NSC TGx‐28.65 / PCA TGx‐28.65: 4 hr + 3-4 hr recovery"}, "[8]": {"system": "bacteria", "details": "ref NTP, 1993; cited from earlier work"}, "[9]": {"system": "mammalian cells", "details": "Chinese hamster ovary cells; ref NTP, 1993; cited from earlier work"}, "[10]": {"details": "B6C3F1 mouse bone marrow cells; ref NTP, 1993; cited from earlier work"}, "[11]": {"details": "2012, cited from earlier work"}, "[12]": {"details": "rats and mice; ref NTP, 1993; cited from earlier work"}, "[13]": {"system": "ATF3, CDKN1A, and GADD45A", "test": "RT‐qPCR of the three stress response genes", "type": "cell-based, human", "details": "2% Aroclor‐induced S9"}}, "note": "Like-named read-outs stand apart in the source and are kept apart here.", "data": [{"smiles": "c1ccoc1", "note": "[Furan]", "values": [{"measurement": "ATF3 fold change vs vehicle control (+S9)", "setting": "[1]; 2 mM, 5% ethanol S9", "result": 2.3, "unit": "fold change"}, {"measurement": "ATF3 fold change vs vehicle control (+S9)", "setting": "[1]; 3 mM, 5% ethanol S9", "result": 3.1, "unit": "fold change"}, {"measurement": "ATF3 fold change vs vehicle control (+S9)", "setting": "[1]; 5 mM, 5% ethanol S9", "result": 5.4, "unit": "fold change"}, {"measurement": "CDKN1A fold change vs vehicle control (+S9)", "setting": "[2]; 2 mM, 5% ethanol S9", "result": 3.2, "unit": "fold change"}, {"measurement": "CDKN1A fold change vs vehicle control (+S9)", "setting": "[2]; 3 mM, 5% ethanol S9", "result": 5.3, "unit": "fold change"}, {"measurement": "CDKN1A fold change vs vehicle control (+S9)", "setting": "[2]; 5 mM, 5% ethanol S9", "result": 9.8, "unit": "fold change"}, {"measurement": "GADD45A fold change vs vehicle control (+S9)", "setting": "[3]; 2 mM, 5% ethanol S9", "result": 1.4, "unit": "fold change"}, {"measurement": "GADD45A fold change vs vehicle control (+S9)", "setting": "[3]; 3 mM, 5% ethanol S9", "result": 1.4, "unit": "fold change"}, {"measurement": "GADD45A fold change vs vehicle control (+S9)", "setting": "[3]; 5 mM, 5% ethanol S9", "result": 2.4, "unit": "fold change"}, {"measurement": "% Relative Survival", "setting": "[4]; 2 mM, 5% ethanol S9", "result": 80.06, "unit": "%"}, {"measurement": "% Relative Survival", "setting": "[4]; 3 mM, 5% ethanol S9", "result": 64.52, "unit": "%"}, {"measurement": "% Relative Survival", "setting": "[4]; 5 mM, 5% ethanol S9", "result": 48.45, "unit": "%"}, {"measurement": "effect on RS, range finder", "setting": "[4]; 2% Aroclor‐induced S9, data not shown", "result": "did not cause a decline in RS"}, {"measurement": "% Apoptotic cells", "setting": "[5]; 2 mM, 5% ethanol S9", "result": 7.07, "unit": "%"}, {"measurement": "% Apoptotic cells", "setting": "[5]; 3 mM, 5% ethanol S9", "result": 8.40, "unit": "%"}, {"measurement": "% Apoptotic cells", "setting": "[5]; 5 mM, 5% ethanol S9", "result": 15.26, "unit": "%"}, {"measurement": "% MN", "setting": "[6]; 2 mM, 5% ethanol S9", "result": 1.57, "unit": "%"}, {"measurement": "% MN", "setting": "[6]; 3 mM, 5% ethanol S9", "result": 1.77, "unit": "%"}, {"measurement": "% MN", "setting": "[6]; 5 mM, 5% ethanol S9", "result": 2.78, "unit": "%"}, {"measurement": "clastogenicity (analysis of MN)", "setting": "[6]; 5% ethanol‐induced S9", "result": "clastogenic at high concentrations"}, {"measurement": "statistically significant % MN increase relative to controls", "setting": "[6]", "result": "over twofold"}, {"measurement": "Dendogram TGx‐28.65", "setting": "[7]; 2 mM, 5% ethanol S9", "result": "+"}, {"measurement": "NSC TGx‐28.65", "setting": "[7]; 2 mM, 5% ethanol S9", "result": "+"}, {"measurement": "PCA TGx‐28.65", "setting": "[7]; 2 mM, 5% ethanol S9", "result": "+"}, {"measurement": "Dendogram TGx‐28.65", "setting": "[7]; 3 mM, 5% ethanol S9", "result": "+"}, {"measurement": "NSC TGx‐28.65", "setting": "[7]; 3 mM, 5% ethanol S9", "result": "+"}, {"measurement": "PCA TGx‐28.65", "setting": "[7]; 3 mM, 5% ethanol S9", "result": "+"}, {"measurement": "Dendogram TGx‐28.65", "setting": "[7]; 5 mM, 5% ethanol S9", "result": "+"}, {"measurement": "NSC TGx‐28.65", "setting": "[7]; 5 mM, 5% ethanol S9", "result": "+"}, {"measurement": "PCA TGx‐28.65", "setting": "[7]; 5 mM, 5% ethanol S9", "result": "+"}, {"measurement": "Ames test", "setting": "[8]", "result": "negative"}, {"measurement": "chromosomal aberrations", "setting": "[9]", "result": "causes chromosomal aberrations"}, {"measurement": "chromosomal aberrations", "setting": "[10]", "result": "causes chromosomal aberrations"}, {"measurement": "liver DNA strand breaks, comet assay", "setting": "[11]; Big Blue rats, ref McDaniel et al.", "result": "DNA damage at high doses"}, {"measurement": "DNA strand breaks by the comet assay", "setting": "[11]; F344 rats at cancer‐causing doses, ref Ding et al.", "result": "near‐linear dose‐dependent increase in DNA strand breaks"}, {"measurement": "carcinogenicity", "setting": "[12]", "result": "causes liver cancer"}]}, {"smiles": "CN(C)N=O", "note": "[Dimethylnitrosamine]", "values": [{"measurement": "ATF3 fold change vs vehicle control (+S9)", "setting": "[1]; 1 mM, 2% Aroclor S9", "result": 0.8, "unit": "fold change"}, {"measurement": "ATF3 fold change vs vehicle control (+S9)", "setting": "[1]; 5 mM, 2% Aroclor S9", "result": 0.8, "unit": "fold change"}, {"measurement": "ATF3 fold change vs vehicle control (+S9)", "setting": "[1]; 10 mM, 2% Aroclor S9", "result": 0.8, "unit": "fold change"}, {"measurement": "CDKN1A fold change vs vehicle control (+S9)", "setting": "[2]; 1 mM, 2% Aroclor S9", "result": 1.0, "unit": "fold change"}, {"measurement": "CDKN1A fold change vs vehicle control (+S9)", "setting": "[2]; 5 mM, 2% Aroclor S9", "result": 1.3, "unit": "fold change"}, {"measurement": "CDKN1A fold change vs vehicle control (+S9)", "setting": "[2]; 10 mM, 2% Aroclor S9", "result": 1.2, "unit": "fold change"}, {"measurement": "GADD45A fold change vs vehicle control (+S9)", "setting": "[3]; 1 mM, 2% Aroclor S9", "result": 1.0, "unit": "fold change"}, {"measurement": "GADD45A fold change vs vehicle control (+S9)", "setting": "[3]; 5 mM, 2% Aroclor S9", "result": 1.2, "unit": "fold change"}, {"measurement": "GADD45A fold change vs vehicle control (+S9)", "setting": "[3]; 10 mM, 2% Aroclor S9", "result": 1.5, "unit": "fold change"}, {"measurement": "induction of genes in the stress response panel", "setting": "[13]", "result": "did not induce any of the genes"}, {"measurement": "change in RS relative to DMSO controls", "setting": "[4]", "result": "declines"}, {"measurement": "% Relative Survival", "setting": "[4]; 1 mM, 2% Aroclor S9", "result": 76.40, "unit": "%"}, {"measurement": "% Relative Survival", "setting": "[4]; 5 mM, 2% Aroclor S9", "result": 72.92, "unit": "%"}, {"measurement": "% Relative Survival", "setting": "[4]; 10 mM, 2% Aroclor S9", "result": 45.65, "unit": "%"}, {"measurement": "% Apoptotic cells", "setting": "[5]; 1 mM, 2% Aroclor S9", "result": 8.47, "unit": "%"}, {"measurement": "% Apoptotic cells", "setting": "[5]; 5 mM, 2% Aroclor S9", "result": 12.27, "unit": "%"}, {"measurement": "% Apoptotic cells", "setting": "[5]; 10 mM, 2% Aroclor S9", "result": 30.63, "unit": "%"}, {"measurement": "change in % MN relative to DMSO controls", "setting": "[6]", "result": "Significant increases"}, {"measurement": "% MN", "setting": "[6]; 1 mM, 2% Aroclor S9", "result": 1.15, "unit": "%"}, {"measurement": "% MN", "setting": "[6]; 5 mM, 2% Aroclor S9", "result": 2.29, "unit": "%"}, {"measurement": "% MN", "setting": "[6]; 10 mM, 2% Aroclor S9", "result": 2.80, "unit": "%"}, {"measurement": "statistically significant % MN increase relative to controls", "setting": "[6]", "result": "over twofold"}, {"measurement": "Dendogram TGx‐28.65", "setting": "[7]; 1 mM, 2% Aroclor S9", "result": "−"}, {"measurement": "NSC TGx‐28.65", "setting": "[7]; 1 mM, 2% Aroclor S9", "result": "−"}, {"measurement": "PCA TGx‐28.65", "setting": "[7]; 1 mM, 2% Aroclor S9", "result": "−"}, {"measurement": "Dendogram TGx‐28.65", "setting": "[7]; 5 mM, 2% Aroclor S9", "result": "+"}, {"measurement": "NSC TGx‐28.65", "setting": "[7]; 5 mM, 2% Aroclor S9", "result": "+"}, {"measurement": "PCA TGx‐28.65", "setting": "[7]; 5 mM, 2% Aroclor S9", "result": "+"}, {"measurement": "Dendogram TGx‐28.65", "setting": "[7]; 10 mM, 2% Aroclor S9", "result": "+"}, {"measurement": "NSC TGx‐28.65", "setting": "[7]; 10 mM, 2% Aroclor S9", "result": "+"}, {"measurement": "PCA TGx‐28.65", "setting": "[7]; 10 mM, 2% Aroclor S9", "result": "+"}, {"measurement": "hierarchical cluster analysis with TGx‐28.65", "setting": "[7]; 10% Aroclor‐induced S9, lowest concentration (1 mM)", "result": "on the same branch as non‐genotoxic agents"}, {"measurement": "classification using TGx‐28.65", "setting": "[7]; low concentrations", "result": "non‐genotoxic"}, {"measurement": "classification using TGx‐28.65", "setting": "[7]; mid and high concentrations", "result": "genotoxic"}]}]}
